Results: article PMC7615656 (European journal of pharmacology, 2010)

Key:
[1] = target: recombinant rat α6β3γ2 receptors (Rattus norvegicus, UniProt P18508+P30191); test: Two-electrode voltage clamp of GABA-induced chloride currents in Xenopus oocytes; assay type: cell-based; details: for efficacy (% GABA EC3): α6β3γ2, ns = not significant
[2] = target: recombinant rat α2β3γ2F77I receptors (Rattus norvegicus, UniProt P18508+P23576, F115I); test: as above; assay type: cell-based; details: α2β3γ2F77I, ns = not significant
[3] = target: recombinant rat α3β3γ2 receptors (Rattus norvegicus, UniProt P18508+P20236); test: as above; assay type: cell-based; details: for efficacy (% GABA EC3): α3β3γ2, ns = not significant
[4] = target: recombinant rat α5β3γ2F77I receptors (Rattus norvegicus, UniProt P18508+P19969, F115I); test: as above; assay type: cell-based; details: α5β3γ2F77I, ns = not significant
[5] = target: recombinant rat α1β3γ2F77I receptors (Rattus norvegicus, UniProt P18508+P62813, F115I); test: as above; assay type: cell-based; details: α1β3γ2F77I; for efficacy (% GABA EC3): ns = not significant
[6] = tested on: GABAA receptors containing the γ2F77I mutation; test: Modulation of GABA EC3 in receptors containing the γ2F77I mutation; assay type: cell-based, rat; details: 10 μM; some γ2F77I receptors
[7] = tested on: GABAA receptors of mice containing the point mutation γ2F77I; details: receptor binding; ref Ogris et al., 2004; cited from earlier work
[8] = target: recombinant rat α4β3γ2 receptors (Rattus norvegicus, UniProt P18508+P28471); test: Two-electrode voltage clamp of GABA-induced chloride currents in Xenopus oocytes; assay type: cell-based; details: for efficacy (% GABA EC3): α4β3γ2, ns = not significant
recombinant rat α4β3γ2 receptors, sequence (P28471 36-552): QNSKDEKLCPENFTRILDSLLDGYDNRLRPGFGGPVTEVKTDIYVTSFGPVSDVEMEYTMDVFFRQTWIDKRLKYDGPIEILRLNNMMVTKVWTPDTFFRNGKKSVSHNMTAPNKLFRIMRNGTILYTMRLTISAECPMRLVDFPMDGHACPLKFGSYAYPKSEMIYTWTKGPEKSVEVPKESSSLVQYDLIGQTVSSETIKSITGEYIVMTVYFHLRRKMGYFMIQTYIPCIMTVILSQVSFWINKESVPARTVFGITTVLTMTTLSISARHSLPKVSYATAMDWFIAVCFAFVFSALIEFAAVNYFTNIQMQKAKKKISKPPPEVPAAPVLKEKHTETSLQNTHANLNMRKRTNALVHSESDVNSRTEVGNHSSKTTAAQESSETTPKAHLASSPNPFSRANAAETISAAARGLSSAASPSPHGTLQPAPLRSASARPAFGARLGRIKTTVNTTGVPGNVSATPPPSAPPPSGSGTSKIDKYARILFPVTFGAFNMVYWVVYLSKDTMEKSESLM
recombinant rat α4β3γ2 receptors, sequence (P63079 26-473 partner): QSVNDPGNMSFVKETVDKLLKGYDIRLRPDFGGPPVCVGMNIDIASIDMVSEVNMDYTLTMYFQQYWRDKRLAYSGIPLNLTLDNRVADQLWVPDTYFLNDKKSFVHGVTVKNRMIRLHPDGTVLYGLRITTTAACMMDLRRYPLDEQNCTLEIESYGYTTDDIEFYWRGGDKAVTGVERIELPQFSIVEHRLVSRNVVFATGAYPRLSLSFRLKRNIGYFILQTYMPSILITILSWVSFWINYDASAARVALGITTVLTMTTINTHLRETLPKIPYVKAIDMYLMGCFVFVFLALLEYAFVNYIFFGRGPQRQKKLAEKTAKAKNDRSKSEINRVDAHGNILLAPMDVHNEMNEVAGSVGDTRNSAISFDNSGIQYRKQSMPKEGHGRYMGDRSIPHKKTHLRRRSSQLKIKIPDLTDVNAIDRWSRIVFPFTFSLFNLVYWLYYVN
recombinant rat α4β3γ2 receptors, sequence (P18508 39-466): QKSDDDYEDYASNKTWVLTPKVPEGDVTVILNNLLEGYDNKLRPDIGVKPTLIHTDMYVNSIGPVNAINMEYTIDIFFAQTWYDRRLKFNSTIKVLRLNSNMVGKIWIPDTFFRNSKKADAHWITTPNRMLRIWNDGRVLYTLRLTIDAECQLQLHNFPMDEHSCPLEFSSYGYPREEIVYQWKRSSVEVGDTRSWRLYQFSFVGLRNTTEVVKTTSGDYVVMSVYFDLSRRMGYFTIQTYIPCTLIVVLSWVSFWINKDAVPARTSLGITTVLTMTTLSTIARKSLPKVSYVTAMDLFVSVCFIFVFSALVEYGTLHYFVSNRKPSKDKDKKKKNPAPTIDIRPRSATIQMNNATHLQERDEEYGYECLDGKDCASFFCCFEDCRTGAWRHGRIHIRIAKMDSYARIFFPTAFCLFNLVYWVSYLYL

[9] = target: recombinant rat α2β3γ2 receptors (Rattus norvegicus, UniProt P18508+P23576); test: as above; assay type: cell-based
recombinant rat α2β3γ2 receptors, sequence (P23576 29-451): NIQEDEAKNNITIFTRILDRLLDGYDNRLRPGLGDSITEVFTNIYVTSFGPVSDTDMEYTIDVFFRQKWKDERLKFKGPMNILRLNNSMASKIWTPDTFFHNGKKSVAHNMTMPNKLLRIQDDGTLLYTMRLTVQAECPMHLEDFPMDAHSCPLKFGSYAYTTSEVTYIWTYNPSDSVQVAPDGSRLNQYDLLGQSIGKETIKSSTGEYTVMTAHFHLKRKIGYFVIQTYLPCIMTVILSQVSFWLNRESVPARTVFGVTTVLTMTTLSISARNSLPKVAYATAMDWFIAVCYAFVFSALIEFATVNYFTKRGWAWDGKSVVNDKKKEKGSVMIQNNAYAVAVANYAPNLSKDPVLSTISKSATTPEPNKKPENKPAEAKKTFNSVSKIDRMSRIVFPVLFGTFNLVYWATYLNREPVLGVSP
recombinant rat α2β3γ2 receptors, sequence (P63079 26-473 partner): as the sequence (P63079 26-473 partner) above
recombinant rat α2β3γ2 receptors, sequence (P18508 39-466): as the sequence (P18508 39-466) above

[10] = target: recombinant rat α5β3γ2 receptors (Rattus norvegicus, UniProt P18508+P19969); test: as above; assay type: cell-based; details: for efficacy (% GABA EC3): α5β3γ2, ns = not significant
[11] = target: recombinant rat α1β3γ2 receptors (Rattus norvegicus, UniProt P18508+P62813); test: as above; assay type: cell-based; details: for efficacy (% GABA EC3): ns = not significant
[12] = target: recombinant rat α3β3γ2F77I receptors (Rattus norvegicus, UniProt P18508+P20236, F115I); test: as above; assay type: cell-based; details: α3β3γ2F77I, ns = not significant
α5 receptors = details: ref Atack et al., 2006; Quirk et al., 1996; cited from earlier work
[13] = target: recombinant rat α4β3γ2F77I receptors (Rattus norvegicus, UniProt P18508+P28471, F115I); test: Two-electrode voltage clamp of GABA-induced chloride currents in Xenopus oocytes; assay type: cell-based; details: ns = not significant
recombinant rat α4β3γ2F77I receptors, sequence (P28471 36-552): as the sequence (P28471 36-552) above
recombinant rat α4β3γ2F77I receptors, sequence (P63079 26-473 partner): as the sequence (P63079 26-473 partner) above
recombinant rat α4β3γ2F77I receptors, sequence (P18508 39-466 F115I): as the sequence (P18508 39-466) above, with F77I counted along it

α3β3γ2 receptors = details: 10 μM, ref Atack et al., 2006; cited from earlier work
[14] = target: recombinant rat α6β3γ2F77I receptors (Rattus norvegicus, UniProt P18508+P30191, F115I); test: Two-electrode voltage clamp of GABA-induced chloride currents in Xenopus oocytes; assay type: cell-based; details: ns = not significant
α1β3 receptors = α1β3 receptors (Rattus norvegicus, UniProt P62813+P63079); test: Zn2+ reduction of GABA-induced chloride flux; assay type: cell-based; details: 10 μM Zn2+, means ± SEM, n=4
α1β3 receptors, sequence (P62813 28-455): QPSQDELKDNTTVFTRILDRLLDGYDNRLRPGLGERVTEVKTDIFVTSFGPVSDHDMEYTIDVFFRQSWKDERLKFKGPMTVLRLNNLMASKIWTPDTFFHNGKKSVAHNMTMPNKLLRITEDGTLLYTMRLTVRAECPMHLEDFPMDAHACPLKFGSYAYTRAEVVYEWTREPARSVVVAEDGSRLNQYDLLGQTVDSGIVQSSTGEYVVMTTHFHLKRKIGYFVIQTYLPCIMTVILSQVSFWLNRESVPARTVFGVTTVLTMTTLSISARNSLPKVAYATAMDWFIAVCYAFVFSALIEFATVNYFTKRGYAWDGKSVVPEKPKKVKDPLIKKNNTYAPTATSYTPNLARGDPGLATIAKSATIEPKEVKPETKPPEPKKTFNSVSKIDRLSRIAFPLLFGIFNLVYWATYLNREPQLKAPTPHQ
α1β3 receptors, sequence (P63079 26-473): as the sequence (P63079 26-473 partner) above

[15] = 100 nM, α2β3γ2, ns = not significant
[16] = 1 μM, α2β3γ2, ns = not significant
[17] = 10 μM, α2β3γ2, ns = not significant
[18] = read-out: efficacy (% GABA EC3)

SMILES: Cc1nnc2ccc(-c3cccc(C(F)(F)F)c3)nn12 [CL 218872, 3-methyl-6-[3-trifluoromethyl-phenyl]-1,2,4-triazolo[4,3-b]pyridazine]
- efficacy (% GABA EC3) ([1]; 100 nM): ns
- efficacy (% GABA EC3) ([1]; 1 μM): ns
- efficacy (% GABA EC3) ([1]; 10 μM): ns
- efficacy (% GABA EC3) ([1]; 10 μM, listed as Cl218872): no significant stimulation
- efficacy (% GABA EC3) ([2]; 100 nM): ns
- efficacy (% GABA EC3) ([2]; 1 μM): ns
- efficacy (% GABA EC3) ([2]; 10 μM): ns
- efficacy (% GABA EC3) ([3]; 100 nM): 114 ± 2 % GABA EC3
- efficacy (% GABA EC3) ([3]; 1 μM): 138 ± 7 % GABA EC3
- efficacy (% GABA EC3) ([3]; 10 μM): 195 ± 8 % GABA EC3
- fold reduced potency for enhancing GABA EC3 ([3]; α3β3γ2 versus α1β3γ2): approximately 3 fold
- efficacy (% GABA EC3) ([4]; 100 nM): ns
- efficacy (% GABA EC3) ([4]; 1 μM): ns
- efficacy (% GABA EC3) ([4]; 10 μM): 120 ± 3 % GABA EC3
- efficacy (% GABA EC3) ([5]; 100 nM): ns
- efficacy (% GABA EC3) ([5]; 1 μM): ns
- efficacy (% GABA EC3) ([5]; 10 μM): 132 ± 4 % GABA EC3
- stimulation of GABA-induced chloride flux [6]: 20–40%
- shift in affinity caused by γ2F77I [7]: ~900 fold
- efficacy (% GABA EC3) ([8]; 100 nM): ns
- efficacy (% GABA EC3) ([8]; 1 μM): ns
- efficacy (% GABA EC3) ([8]; 1 μM, listed as Cl218872): no effect
- efficacy (% GABA EC3) ([8]; 10 μM): 199 ± 27 % GABA EC3
- efficacy (% GABA EC3) [9, 15]: ns
- efficacy (% GABA EC3) [9, 16]: ns
- efficacy (% GABA EC3) [9, 17]: 162 ± 3 % GABA EC3
- further fold reduction of potency for enhancing GABA current ([9]; α2β3γ2 versus α3β3γ2): approximately 3 fold
- efficacy (% GABA EC3) ([10]; 100 nM): ns
- efficacy (% GABA EC3) ([10]; 1 μM): 114 ± 1 % GABA EC3
- efficacy (% GABA EC3) ([10]; 10 μM): 128 ± 2 % GABA EC3
- efficacy (% GABA EC3) ([11]; 100 nM, α1β3γ2): 119 ± 7 % GABA EC3
- efficacy (% GABA EC3) ([11]; 1 μM, α1β3γ2): 172 ± 10 % GABA EC3
- efficacy (% GABA EC3) ([11]; 10 μM, α1β3γ2): 214 ± 13 % GABA EC3
- efficacy (% GABA EC3) ([12]; 100 nM): ns
- efficacy (% GABA EC3) ([12]; 1 μM): ns
- efficacy (% GABA EC3) ([12]; 10 μM): 125 ± 3 % GABA EC3

SMILES: CCOC(=O)c1ncn2c1C1CCCN1C(=O)c1cc(OC)ccc1-2 [L-655,708, ethyl-7-methoxy-11,12,13,13a-tetrahydro-9-oxo-9H-imidazo[1,5-a]pyrrolo[2,1-c][1,4] benzodiazepine-1-carboxylate]
- EC50 [1]: > 470 nM
- activity at 0.01 µM [1, 18]: 118 ± 4%
- activity at 0.1 µM [1, 18]: 131 ± 12%
- activity at 1 µM [1, 18]: 176 ± 25%
- activity at 10 µM [1, 18]: 199 ± 31%
- efficacy (% GABA EC3) ([2]; 10 nM): ns
- efficacy (% GABA EC3) ([2]; 100 nM): ns
- efficacy (% GABA EC3) ([2]; 1 μM): ns
- efficacy (% GABA EC3) ([2]; 10 μM): ns
- EC50 [3]: 10 ± 3 nM
- activity at 0.01 µM [3, 18]: 113 ± 1%
- activity at 0.1 µM [3, 18]: 126 ± 1%
- activity at 1 µM [3, 18]: 131 ± 4%
- activity at 10 µM [3, 18]: 126 ± 4%
- efficacy (% GABA EC3) ([4]; 10 nM): ns
- efficacy (% GABA EC3) ([4]; 100 nM): ns
- efficacy (% GABA EC3) ([4]; 1 μM): ns
- efficacy (% GABA EC3) ([4]; 10 μM): ns
- selectivity for α5 receptors in receptor binding assays (α5 receptors): 30–50 fold
- efficacy (% GABA EC3) ([13]; 10 nM): ns
- efficacy (% GABA EC3) ([13]; 100 nM): ns
- efficacy (% GABA EC3) ([13]; 1 μM): ns
- efficacy (% GABA EC3) ([13]; 10 μM): ns
- reduction of GABA-induced chloride flux to (α3β3γ2 receptors): 90%
- efficacy (% GABA EC3) ([5]; 10 nM): ns
- efficacy (% GABA EC3) ([5]; 100 nM): ns
- efficacy (% GABA EC3) ([5]; 1 μM): ns
- efficacy (% GABA EC3) ([5]; 10 μM): ns
- shift in affinity caused by γ2F77I [7]: > 1000 fold
- efficacy (% GABA EC3) ([14]; 10 nM): ns
- efficacy (% GABA EC3) ([14]; 100 nM): ns
- efficacy (% GABA EC3) ([14]; 1 μM): ns
- efficacy (% GABA EC3) ([14]; 10 μM): ns
- EC50 [8]: 168 ± 71 nM
- efficacy (% GABA EC3) ([8]; 10 nM): ns
- activity at 0.1 µM [8, 18]: 143 ± 12%
- activity at 1 µM [8, 18]: 215 ± 4%
- activity at 10 µM [8, 18]: 224 ± 15%
- efficacy (% GABA EC3) ([9]; 10 nM, α2β3γ2, ns = not significant): ns
- efficacy (% GABA EC3) [9, 15]: ns
- activity at 1 µM ([9]; read-out: efficacy (% GABA EC3), 1 μM, α2β3γ2, ns = not significant): 93 ± 1%
- activity at 10 µM ([9]; read-out: efficacy (% GABA EC3), 10 μM, α2β3γ2, ns = not significant): 90%
- efficacy (% GABA EC3) ([10]; 10 nM): ns
- activity at 0.1 µM [10, 18]: 91 ± 1%
- activity at 1 µM [10, 18]: 84 ± 5%
- activity at 10 µM [10, 18]: 66 ± 7%
- efficacy (% GABA EC3) ([11]; 10 nM, α1β3γ2): ns
- efficacy (% GABA EC3) ([11]; 100 nM, α1β3γ2): ns
- efficacy (% GABA EC3) ([11]; 1 μM, α1β3γ2): ns
- efficacy (% GABA EC3) ([11]; 10 μM, α1β3γ2): 90 ± 4 % GABA EC3
- activity at 10 µM [11, 18]: 90%
- efficacy (% GABA EC3) ([12]; 10 nM): ns
- efficacy (% GABA EC3) ([12]; 100 nM): ns
- efficacy (% GABA EC3) ([12]; 1 μM): ns
- efficacy (% GABA EC3) ([12]; 10 μM): ns

SMILES: [Zn+2] [Zn^2+]
- GABA-induced chloride flux reduced to (α1β3 receptors): 5.5 ± 1%
- GABA-induced chloride flux reduced to ([5]; 10 μM Zn2+, means ± SEM, n=4): 75.4 ± 3%
- GABA-induced chloride flux reduced to ([11]; 10 μM Zn2+, α1β3γ2, means ± SEM, n=4): 70.3 ± 3%

SMILES: CN1CCN(C(=O)OC2c3nccnc3C(=O)N2c2ccc(Cl)cn2)CC1 (stereo not shown) [Zopiclone, 4-methyl-1-piperazinecarboxylic acid-6-(5-chloro-2-pyridinyl)-6,7-dihydro-7-oxo-5H-pyrrolo[3,4-b]pyrazin-5-yl ester]
- efficacy (% GABA EC3) ([1]; 1 μM): ns
- efficacy (% GABA EC3) ([1]; 10 μM): ns
- efficacy (% GABA EC3) ([1]; 10 μM, listed as zopiclone): did not significantly stimulate
- efficacy (% GABA EC3) ([2]; 100 nM): ns
- efficacy (% GABA EC3) ([2]; 1 μM): ns
- efficacy (% GABA EC3) ([2]; 10 μM): 121 ± 2 % GABA EC3
- EC50 [3]: > 793 nM
- efficacy (% GABA EC3) ([3]; 100 nM): 161 ± 10 % GABA EC3
- efficacy (% GABA EC3) ([3]; 1 μM): 377 ± 24 % GABA EC3
- efficacy (% GABA EC3) ([3]; 10 μM): 559 ± 30 % GABA EC3
- efficacy (% GABA EC3) ([4]; 100 nM): ns
- efficacy (% GABA EC3) ([4]; 1 μM): 114 ± 2 % GABA EC3
- efficacy (% GABA EC3) ([4]; 10 μM): 144 ± 1 % GABA EC3
- efficacy (% GABA EC3) ([5]; 100 nM): ns
- efficacy (% GABA EC3) ([5]; 1 μM): ns
- efficacy (% GABA EC3) ([5]; 10 μM): 125 ± 3 % GABA EC3
- stimulation of GABA-induced chloride flux [6]: 20–40%
- shift in affinity caused by γ2F77I [7]: ~100 fold
- efficacy (% GABA EC3) ([8]; 1 μM): ns
- efficacy (% GABA EC3) ([8]; 10 μM): ns
- efficacy (% GABA EC3) ([8]; 10 μM, listed as zopiclone): did not significantly stimulate
- EC50 [9]: 400 ± 64 nM
- efficacy (% GABA EC3) [9, 15]: 157 ± 9 % GABA EC3
- efficacy (% GABA EC3) [9, 16]: 289 ± 16 % GABA EC3
- efficacy (% GABA EC3) [9, 17]: 356 ± 22 % GABA EC3
- EC50 [10]: 176 ± 1 nM
- efficacy (% GABA EC3) ([10]; 100 nM): 191 ± 8 % GABA EC3
- efficacy (% GABA EC3) ([10]; 1 μM): 313 ± 18 % GABA EC3
- efficacy (% GABA EC3) ([10]; 10 μM): 345 ± 22 % GABA EC3
- EC50 [11]: 163 ± 19 nM
- efficacy (% GABA EC3) ([11]; 100 nM, α1β3γ2): 211 ± 17 % GABA EC3
- efficacy (% GABA EC3) ([11]; 1 μM, α1β3γ2): 347 ± 35 % GABA EC3
- efficacy (% GABA EC3) ([11]; 10 μM, α1β3γ2): 383 ± 36 % GABA EC3
- efficacy (% GABA EC3) ([12]; 100 nM): ns
- efficacy (% GABA EC3) ([12]; 1 μM): 107 ± 1 % GABA EC3
- efficacy (% GABA EC3) ([12]; 10 μM): 119 ± 4 % GABA EC3
